Values belong to the compound of their own block, whether it stands above or below them.
Tests used:
Assay type in all cases: physicochemical
[1] = Specific powder surface area by nitrogen gas sorption (BET); settings: triplicate, trihydrate
Protocol: Specific powder surface area was determined using nitrogen gas sorption (Smartsorb, Smart Instruments, Mumbai, India). Prior to measurements, samples were regenerated by degassing to remove moisture and contamination. The regenerated sample was dipped in liquid nitrogen and the quantity of the adsorbed gas was measured using a thermal conductivity detector and subsequently integrated using an electronic circuit in terms of counts. The instrument was calibrated by injecting a known quantity of nitrogen. The measured parameters were subsequently used to calculate the surface area of the sample by employing the adsorption theories of Brunauer, Emmett and Teller (BET).
(§1) Parameters operated were: • Augar Speed: 5-90 rpm • Primary Air Pressure: 2-8 kg·cm^−2 • Secondary Air Pressure: 4-10 kg·cm^−2 The surface area (in triplicate), average particle size and contact angle (in quadruplicate) were determined as outlined in the General section. The purity of the amoxicillin trihydrate samples was 99.4±0.3% and were void of dichloromethane, isopropanol, pivalic acid and triethyl amine.

[2] = Particle size distribution by laser diffraction (Malvern); settings: trihydrate
Protocol: Particle size distribution values D10, D50, D90 and D100 were determined using laser diffraction applying Malvern equipment. A suitable apparatus for determining D10, D50, D90 and D100 is a Malvern particle sizer 2600 C or a Malvern Zeta Sizer.
as §1

[3] = Contact angle by sessile drop method (water); settings: ambient conditions, trihydrate
Protocol: Contact angles of amoxicillin trihydrate powder samples were measured by the sessile drop method using an Drop Shape Analyzer instrument (FTA 1000, First Ten Angstrom, Virginia, USA). Powder samples were mounted on double sided adhesive tape adhered to a glass slide and excess powder was removed by tapping the slide. A drop of probe liquid (water) was dispersed onto the sample surface and video images were captured by the FTA image analyzer. The contact angle was calculated by the instrument by fitting a mathematical expression to the shape of the drop followed by calculating the slope of the tangent to the drop at the liquid-solid-vapor interface line. The surface tension of ultrapure ELGA laboratory water was measured to be 73±0.5 mN·m^−1 at 25° C. All measurements were performed in air under ambient conditions and an average of four measurements was reported in the below Examples.
as §1

[4] = Powder dissolution, USP/NF paddle method with HPLC analysis; settings: 500 mg in 900 mL water, 37 °C, 75 rpm; for Amoxicillin released in solution Mean: mean of 3; for Amoxicillin released in solution #1: replicate #1; for Amoxicillin released in solution #2: replicate #2; for Amoxicillin released in solution #3: replicate #3
Protocol: Dissolution analysis of amoxicillin trihydrate powder samples was carried out using the USP/NF paddle method at a rotational speed of 75 rpm. Ultrapure ELGA laboratory water (900 mL) was used as dissolution medium. Media were equilibrated to 37.0±0.5° C. prior to dissolution. Amoxicillin trihydrate sample powder (500 mg) was directly added to the dissolution apparatus (Electrolab USP-24, India). Samples were collected at 0, 1, 3, 5, 10, 15, 30, 60 and 90 min, filtered through 0.2 μm filters and analyzed by HPLC. Dissolution profiles were constructed by plotting the percentage amoxicillin released against time.
The HPLC system (Shimadzu Corporation, Kyoto, Japan) comprised of an SCL-10A VP system controller, LC-10AT VP liquid chromatograph, FCV-10AL VP flow control valve, DGU-14A degasser, SIL-10AD VP auto-injector, CTO-10AS VP column oven, SPD-M20A prominence diode array (PDA) detector and data acquisition Class-VP 6.10 software. The HPLC method was adopted from the United States Pharmacopoeia (USP). The method was validated for linearity, precision, accuracy and intra- and inter-day variability. The mobile phase was 50 mM monobasic potassium phosphate:methanol (96:4, v/v, pH 5.0). All analyses were carried out using Lichrospher® 100 RP-18e analytical column (5 μm, Merck KGaA, Darmstadt, Germany) under isocratic conditions at a flow rate of 1.0 mL·min^−1 at 25° C. with 20 μL injection volume. Effluent was monitored at a wavelength of 230 nm. Samples for calibration curve generation were prepared in 50 mM monobasic potassium phosphate:methanol 1:1 (v/v) proportion at a concentration range of 1 to 600 μg·mL^−1.
The three non-micronized (i.e. entries 1-3 of Table 1) and micronized (i.e. entries 4-6 of Table 1) amoxicillin trihydrate samples of Example 1 were subjected to a powder dissolution test (in triplicate) as outlined in the General section.

Surface Area Mean ± SD (n = 3) [1]: 0.58 ± 0.09 m^2 · g^−1
Average Particle Size D10 [2]: 12.3 μm
Average Particle Size D50 [2]: 39.8 μm
Average Particle Size D90 [2]: 93.3 μm
Average Particle Size D100 [2]: 275.9 μm
Contact Angle Mean ± SD (n = 4) [3]: 75.50 ± 2.95
Amoxicillin released in solution Mean ([4]; 0 min): 0%
Amoxicillin released in solution #1 ([4]; 0 min): 0%
Amoxicillin released in solution #2 ([4]; 0 min): 0%
Amoxicillin released in solution #3 ([4]; 0 min): 0%
Amoxicillin released in solution Mean ([4]; 1 min, trihydrate): 85.98%
Amoxicillin released in solution #1 ([4]; 1 min, trihydrate): 84.65%
Amoxicillin released in solution #2 ([4]; 1 min, trihydrate): 86.65%
Amoxicillin released in solution #3 ([4]; 1 min, trihydrate): 86.65%
Amoxicillin released in solution Mean ([4]; 3 min, trihydrate): 99.25%
Amoxicillin released in solution #1 ([4]; 3 min, trihydrate): 99.74%
Amoxicillin released in solution #2 ([4]; 3 min, trihydrate): 99.01%
Amoxicillin released in solution #3 ([4]; 3 min, trihydrate): 99.01%
Amoxicillin released in solution Mean ([4]; 5 min, trihydrate): 99.51%
Amoxicillin released in solution #1 ([4]; 5 min, trihydrate): 99.44%
Amoxicillin released in solution #2 ([4]; 5 min, trihydrate): 99.54%
Amoxicillin released in solution #3 ([4]; 5 min, trihydrate): 99.54%
Amoxicillin released in solution Mean ([4]; 10 min, trihydrate): 99.14%
Amoxicillin released in solution #1 ([4]; 10 min, trihydrate): 98.65%
Amoxicillin released in solution #2 ([4]; 10 min, trihydrate): 99.04%
Amoxicillin released in solution #3 ([4]; 10 min, trihydrate): 99.73%
Amoxicillin released in solution Mean ([4]; 15 min, trihydrate): 99.12%
Amoxicillin released in solution #1 ([4]; 15 min, trihydrate): 99.28%
Amoxicillin released in solution #2 ([4]; 15 min, trihydrate): 98.69%
Amoxicillin released in solution #3 ([4]; 15 min, trihydrate): 99.38%
Amoxicillin released in solution Mean ([4]; 30 min, trihydrate): 99.31%
Amoxicillin released in solution #1 ([4]; 30 min, trihydrate): 99.50%
Amoxicillin released in solution #2 ([4]; 30 min, trihydrate): 99.56%
Amoxicillin released in solution #3 ([4]; 30 min, trihydrate): 98.87%
Amoxicillin released in solution Mean ([4]; 60 min, trihydrate): 99.25%
Amoxicillin released in solution #1 ([4]; 60 min, trihydrate): 99.56%
Amoxicillin released in solution #2 ([4]; 60 min, trihydrate): 99.10%
Amoxicillin released in solution #3 ([4]; 60 min, trihydrate): 99.10%
Amoxicillin released in solution Mean ([4]; 90 min, trihydrate): 99.76%
Amoxicillin released in solution #1 ([4]; 90 min, trihydrate): 99.93%
Amoxicillin released in solution #2 ([4]; 90 min, trihydrate): 99.61%
Amoxicillin released in solution #3 ([4]; 90 min, trihydrate): 99.74%
SMILES: CC1(C)S[C@@H]2[C@H](NC(=O)[C@H](N)c3ccc(O)cc3)C(=O)N2[C@H]1C(=O)O.O.O.O [entry 1, amoxicillin trihydrate]

Surface Area Mean ± SD (n = 3) [1]: 0.69 ± 0.03 m^2 · g^−1
Average Particle Size D10 [2]: 13.5 μm
Average Particle Size D50 [2]: 40.6 μm
Average Particle Size D90 [2]: 94.3 μm
Average Particle Size D100 [2]: 237.5 μm
Contact Angle Mean ± SD (n = 4) [3]: 67.70 ± 1.39
Amoxicillin released in solution Mean ([4]; 0 min): 0%
Amoxicillin released in solution #1 ([4]; 0 min): 0%
Amoxicillin released in solution #2 ([4]; 0 min): 0%
Amoxicillin released in solution #3 ([4]; 0 min): 0%
Amoxicillin released in solution Mean ([4]; 1 min, trihydrate): 61.71%
Amoxicillin released in solution #1 ([4]; 1 min, trihydrate): 61.68%
Amoxicillin released in solution #2 ([4]; 1 min, trihydrate): 61.21%
Amoxicillin released in solution #3 ([4]; 1 min, trihydrate): 62.23%
Amoxicillin released in solution Mean ([4]; 3 min, trihydrate): 99.69%
Amoxicillin released in solution #1 ([4]; 3 min, trihydrate): 99.58%
Amoxicillin released in solution #2 ([4]; 3 min, trihydrate): 99.88%
Amoxicillin released in solution #3 ([4]; 3 min, trihydrate): 99.60%
Amoxicillin released in solution Mean ([4]; 5 min, trihydrate): 98.99%
Amoxicillin released in solution #1 ([4]; 5 min, trihydrate): 99.89%
Amoxicillin released in solution #2 ([4]; 5 min, trihydrate): 99.79%
Amoxicillin released in solution #3 ([4]; 5 min, trihydrate): 97.29%
Amoxicillin released in solution Mean ([4]; 10 min, trihydrate): 99.66%
Amoxicillin released in solution #1 ([4]; 10 min, trihydrate): 99.66%
Amoxicillin released in solution #2 ([4]; 10 min, trihydrate): 98.95%
Amoxicillin released in solution #3 ([4]; 10 min, trihydrate): 100.36%
Amoxicillin released in solution Mean ([4]; 15 min, trihydrate): 99.43%
Amoxicillin released in solution #1 ([4]; 15 min, trihydrate): 99.51%
Amoxicillin released in solution #2 ([4]; 15 min, trihydrate): 98.98%
Amoxicillin released in solution #3 ([4]; 15 min, trihydrate): 99.80%
Amoxicillin released in solution Mean ([4]; 30 min, trihydrate): 99.33%
Amoxicillin released in solution #1 ([4]; 30 min, trihydrate): 99.65%
Amoxicillin released in solution #2 ([4]; 30 min, trihydrate): 99.00%
Amoxicillin released in solution #3 ([4]; 30 min, trihydrate): 99.34%
Amoxicillin released in solution Mean ([4]; 60 min, trihydrate): 99.45%
Amoxicillin released in solution #1 ([4]; 60 min, trihydrate): 99.56%
Amoxicillin released in solution #2 ([4]; 60 min, trihydrate): 99.17%
Amoxicillin released in solution #3 ([4]; 60 min, trihydrate): 99.60%
Amoxicillin released in solution Mean ([4]; 90 min, trihydrate): 99.15%
Amoxicillin released in solution #1 ([4]; 90 min, trihydrate): 99.24%
Amoxicillin released in solution #2 ([4]; 90 min, trihydrate): 99.24%
Amoxicillin released in solution #3 ([4]; 90 min, trihydrate): 98.96%
SMILES: CC1(C)S[C@@H]2[C@H](NC(=O)[C@H](N)c3ccc(O)cc3)C(=O)N2[C@H]1C(=O)O.O.O.O [entry 2, amoxicillin trihydrate]

— patent publication US9820943B2, “Micronized amoxicillin” (DSM SINOCHEM PHARMACEUTICALS NETHERLANDS B.V., priority 2013, dated 2017)
